Test results from patent EP2975030B1, “DIHYDROPYRIDAZINE-3,5-DIONE DERIVATIVE” (Chugai Seiyaku Kabushiki Kaisha, priority 2013, dated 2014).

test system: rat small-intestinal brush border membrane vesicles; experiment: Inhibitory effect on 33PO4 uptake into rat small-intestinal brush border membrane vesicles (rapid filtration method); assay type: biochemical, Wistar female rat; details: 1 µM test compound; 33PO4 uptake into rat small-intestinal BBMVs, 60 seconds
Summary of the method: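 Uptake was terminated by ice-cold 110 mM NaCl, 1 mM KH2PO4, 10 mM HEPES (pH 7.5) buffer and immediate suction filtration, then washing. Using rat small-intestinal BBMVs, retained 33PO4 was quantified by liquid scintillation counting as transport activity.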

| Molecule | Rate of uptake inhibition (%) (1 µM) |
| --- | --- |
| COc1cccc(-c2cc(C(F)(F)F)ccc2NC(=O)C2=C(O)[C@@]3(C)CCCN3N(Cc3ccc(C#CCCCO)c(F)c3F)C2=O)c1OC [Example 138] | 93 |
| C#Cc1ccc(CN2C(=O)C(C(=O)Nc3ccc(C(F)(F)F)cc3-c3cc(C(F)(F)F)ncn3)=C(O)[C@@]3(C)CCCN23)c(F)c1F [Example 126, (4aR)-1-[(4-Ethynyl-2,3-difluorophenyl)methyl]-4-hydroxy-4a-methyl-2-oxo-N-[4-(trifluoromethyl)-2-[6-(trifluoromethyl)pyrimidin-4-yl]phenyl]-6,7-dihydro-5H-pyrrolo[1.2-b]pyridazine-3-carboxamide] | 71 |
| CN1N(Cc2ccc(OCCN3CCOC(=O)C3)c(F)c2F)C(=O)C(C(=O)Nc2ccc(C(F)(F)F)cc2-c2cc(C(F)(F)F)ncn2)=C(O)C12CCC2 [Example 337, 8-[[2,3-Difluoro-4-[2-(2-oxomorpholin-4-yl)ethoxy]phenyl]methyl]1-5-hydroxy-9-methyl-7-oxo-N-[4-(trifluoromethyl)-2[6-(trifluoromethyl)pyrimidin-4-yl]phenyl]-8,9-diazaspiro[3.5]non-5-ene-6-carboxamide] | 47 |
| C[C@]12CCCN1N(Cc1cccc(Cl)c1)C(=O)C(C(=O)Nc1cc(F)c(Br)c(F)c1)=C2O [Example 221] | 82 |
| COc1cccc(-c2cc(C(F)(F)F)ccc2NC(=O)C2=C(O)[C@@]3(C)CCCN3N(Cc3ccc(OCc4ccncc4)c(F)c3F)C2=O)c1OC [Example 151, (4aR)-1-[[2,3-Difluoro-4-(pyridin-4-ylmethoxy)phenyl]methyl]-N-[2-(2,3-dimethoxyphenyl)-4-(trifluoromethyl)phenyl]-4-hydroxy-4a-methyl-2-oxo-6,7-dihydro-5H-pyrrolo[1,2-b]pyridazine-3-carboxamide] | 92 |
| C[C@]12CCCN1N(Cc1ccccc1F)C(=O)C(C(=O)Nc1ccc(C(F)(F)F)cc1-c1ccc(C(F)(F)F)nc1)=C2O [Example 200] | 80 |
| CN1[C@@H](C(C)(C)C)C(O)=C(C(=O)Nc2ccc(C(F)(F)F)cc2-c2ccnc(C#N)c2)C(=O)N1Cc1ccc(OCCN2CCOCC2)c(F)c1F [Example 271] | 60 |
| C[C@]12CCCN1N(Cc1cccc(F)c1F)C(=O)C(C(=O)Nc1ccc(C(F)(F)F)cc1-c1cnc(N3CC4(COC4)C3)c(C#N)c1)=C2O [Example 111, (4aR)-N-[2-[5-Cyano-6-(2-oxa-6-azaspiro[3.3]heptan-6-yl)pyridin-3-yl]-4-(trifluoromethyl)phenyl]-1-[(2,3-difluorophenyl)methyl]-4-hydroxy-4a-methyl-2-oxo-6,7-dihydro-5H-pvrrolo[1,2-b]pyridazine-3-carboxamide] | 56 |
| CCN(CCN(C)CCOC)c1ccc(CN2C(=O)C(C(=O)Nc3ccc(C(F)(F)F)cc3-c3cc(C(F)(F)F)ncn3)=C(O)C3(CCCC3)N2C)c(F)c1F [Example 443] | 28 |
| C[C@]12CCCN1N(Cc1c(F)cccc1Cl)C(=O)C(C(=O)Nc1ccc(C(F)(F)F)cc1-c1cc(C(F)(F)F)ncn1)=C2O [Example 210] | 71 |
| COc1cccc(-c2cc(C(F)(F)F)ccc2NC(=O)C2=C(O)[C@@]3(C)CCCN3N(Cc3ccc(C#CCOCCCCO)c(F)c3F)C2=O)c1OC [Example 123, (4aR)-1-[[2,3-Difluoro-4-[3-(4-hydroxybutoxy)prop-1-ynil]phenyl]methyl]-N-[2-(2.3-dimethoxyphenyl)-4-(trifluoromethyl)phenyl]-4-hydroxy-4a-methyl-2-oxo-6,7-dihydro-5H-pyrrolo[1,2-b]pyridazine-3-carboxamide] | 87 |
| CN1N(Cc2cccc(F)c2F)C(=O)C(C(=O)Nc2ccc(Cl)cc2-c2cc(C(F)(F)F)ncn2)=C(O)C12CCCC2 [Example 261] | 77 |
| C[C@]12CCCN1N(Cc1ccc(Br)cc1F)C(=O)C(C(=O)Nc1cc(F)c(Br)c(F)c1)=C2O [Example 166, (4aR)-N-(4-Bromo-3,5-difluorophenyl)-1-[(4-bromo-2-fluorophenyl)methyl]-4-hydroxy-4a-methyl-2-oxo-6,7-dihydro-5H-pyrrolo[1,2-b]pyridazine-3-carboxamide] | 73 |
| Cc1nc(NC(=O)C2=C(O)[C@H](C(C)(C)C)N(C)N(Cc3cccc(F)c3F)C2=O)ccc1Br [Example 241] | 86 |
| CN(C)S(=O)(=O)c1ccc(-c2cc(C(F)(F)F)ccc2NC(=O)C2=C(O)[C@@]3(C)CCCN3N(Cc3cccc(F)c3F)C2=O)s1 [Example 71] | 97 |
| CN1N(Cc2ccc(OCCN3CCOCC3)c(F)c2F)C(=O)C(C(=O)Nc2ccc(Br)c(C(F)(F)F)n2)=C(O)C12CCCCC2 [Example 298] | 10 |
| CN1N(Cc2ccc(OC(C)(C)CN3CCOCC3)c(F)c2F)C(=O)C(C(=O)Nc2ccc(C(F)(F)F)cc2-c2cc(C(F)(F)F)ncn2)=C(O)C12CCC2 [Example 407, 6-[[2,3-Difluoro-4-(2-methyl-1-morpholin-4-ylpropan-2-yl)oxyphenyl]methyl]-9-hydroxy-5-methyl-7-oxo-N-[4-(trifluoromethyl)-2-[6-(trifluoromethyl)pyrimidin-4-yl]phenyl]-5,6-diazaspiro[3.5]non-8-ene-8-carboxamide] | 30 |
| C[C@]12CCCN1N(Cc1cccc(F)c1F)C(=O)C(C(=O)Nc1ccc(Cl)cc1F)=C2O [Example 76] | 77 |
| C[C@]12CCCN1N(Cc1cccc(Cl)c1)C(=O)C(C(=O)Nc1ccc(C(F)(F)F)cc1-c1ccc(C(F)(F)F)nc1)=C2O [Example 169] | 73 |

| Molecule | Rate of uptake inhibition (%) (1 µM) |
| --- | --- |
| COCC(C)(C)N(C)CCOc1ccc(CN2C(=O)C(C(=O)Nc3ccc(C(F)(F)F)cc3-c3cc(C(F)(F)F)ncn3)=C(O)C3(CCC3)N2C)c(F)c1F [Example 349] | 55 |
| COc1cccc(-c2cc(C(F)(F)F)ccc2NC(=O)C2=C(O)[C@@]3(C)CCCN3N(Cc3ccc(OC[C@H]4CCCO4)c(F)c3F)C2=O)c1OC [Example 159] | 89 |
| CN1N(Cc2ccc(C#CCN3CCOCC3)c(F)c2F)C(=O)C(C(=O)Nc2ccc(Cl)cc2-c2cc(C(F)(F)F)ncn2)=C(O)C1(C)C [Example 316, N-[4-Chloro-2-[6-(trifluoromethyl)pyrimidin-4-yl]phenyl]-2-[[2,3-difluoro-4-(3-morpholin-4-ylprop-1-ynil)phenyl]methyl]-5-hydroxy-1,6,6-trimethyl-3-oxopyridazine-4-carboxamide] | 64 |
| CN1N(Cc2cccc(F)c2F)C(=O)C(C(=O)Nc2ccc(Cl)cc2-c2ccc(C(F)(F)F)nc2)=C(O)C12CCC2 [Example 256] | 79 |
| C[C@]12CCCN1N(Cc1c(Cl)cc(OCCN3CCOCC3)cc1Cl)C(=O)C(C(=O)Nc1ccc(C(F)(F)F)nc1-c1ccc(C(F)(F)F)nc1)=C2O.Cl [Example 148, (4aR)-1-[[2,6-Dichloro-4-(2-morpholin-4-ylethoxy)phenyl]methyl]-4-hydroxy-4a-methyl-2-oxo-N-[6-(trifluoromethyl)-2-[6-(trifluoromethyl)pyridin-3-yl]pyridin-3-yl]-6,7-dihydro-5H-pyrrolo[1,2-b]pyridazine-3-carboxamide hydrochloride] | 75 |
| (4aR)-1-[(3-Fluorophenyl)methyl]4-hydroxy-N-[5-methyl-2-(trifluoromethyl)furan-3-yl]-2-oxo-4a-propyl-6,7-dihydro-5H-pyrrolo[1,2-b]pyridazine-3-carboxamide [Example 11] | 22 |
| CN1N(Cc2ccc(NCCN3CCOCC3)c(F)c2F)C(=O)C(C(=O)Nc2ccc(C(F)(F)F)cc2-c2cc(C(F)(F)F)ncn2)=C(O)C12CCCC2 [Example 447] | 50 |
| CN1N(Cc2ccc(OCCn3cncn3)c(F)c2F)C(=O)C(C(=O)Nc2ccc(C(F)(F)F)cc2-c2cc(C(F)(F)F)ncn2)=C(O)C12CCC2 [Example 352] | 27 |
| CN(CCOc1ccc(CN2C(=O)C(C(=O)Nc3ccc(C(F)(F)F)cc3-c3cc(C(F)(F)F)ncn3)=C(O)C3(CCCC3)N2C)c(F)c1F)C1CCOCC1 [Example 365] | 34 |
| CN(CCO)CCOc1ccc(CN2C(=O)C(C(=O)Nc3ccc(C(F)(F)F)cc3-c3cc(C(F)(F)F)ncn3)=C(O)C3(CCCC3)N2C)c(F)c1F [Example 373] | 27 |
| C[C@]12CCCN1N(Cc1c(F)cc(C#CCCCCCOC[C@H](O)[C@@H](O)CO)cc1F)C(=O)C(C(=O)Nc1ccc(C(F)(F)F)cc1-c1ccc(C(F)(F)F)nc1)=C2O [Example 124] | 81 |
| COc1cccc(-c2cc(C(F)(F)F)ccc2NC(=O)C2=C(O)[C@@]3(C)CCCN3N(Cc3ccc(C#CCOCCOCCO)c(F)c3F)C2=O)c1OC [Example 139] | 88 |
| CCC1(CC)C(O)=C(C(=O)Nc2ccc(C(F)(F)F)cc2-c2ccc(C(F)(F)F)nc2)C(=O)N(Cc2ccc(OCCN3CCOCC3)c(F)c2F)N1C [Example 293] | 47 |
| COc1cccc(-c2cc(C(F)(F)F)ccc2NC(=O)C2=C(O)[C@@]3(C)CCCN3N(Cc3ccc(C#CCOCCO)c(F)c3F)C2=O)c1OC [Example 137] | 92 |
| C[C@@]12CCCN1N(Cc1ccc(OCCN3CCOCC3)c(F)c1F)C(=O)C(C(=O)Nc1ccc(Cl)cc1-c1cc(C(F)(F)F)ncn1)=C2O.Cl [Example 107] | 54 |
| COc1c(C#N)ncnc1-c1cc(C(F)(F)F)ccc1NC(=O)C1=C(O)[C@@]2(C)CCCN2N(Cc2cccc(F)c2F)C1=O [Example 25] | 82 |
| Cc1c(Cl)ncnc1-c1cc(Cl)ccc1NC(=O)C1=C(O)[C@H](C(C)(C)C)N(C)N(Cc2ccc(OCCN3CCOCC3)c(F)c2F)C1=O [Example 275] | 42 |
| COC(=O)[C@@H]1CCCN1CCOc1ccc(CN2C(=O)C(C(=O)Nc3ccc(C(F)(F)F)cc3-c3cc(C(F)(F)F)ncn3)=C(O)C3(CCC3)N2C)c(F)c1F [Example 355] | 36 |
